Values joined by “and” are separate entries in the source; they are usually repeats but may differ in a detail not shown here. Equal values may be shown once. Active and inactive are the calls of the source.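 The calls were made as follows: active = compounds giving half or more protection of infected cells from virus-caused growth loss, again on retest; inactive = the rest.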 *1 amine or outer side, *2 acyl side, *3 side chain or, on linkers, in order; H or OH if unused. Where a SMILES comes first, the peptide text is derived from it. [ ]: non-standard residue; d: D form. The star is where a group is joined. X3 = CC(=O)N(C)SCC(N[*:1])C(=O)[*:2]; Cbz = O=C(OCc1ccccc1)*; Boc = CC(C)(C)OC(=O)*; OSu = O=C1CCC(=O)N1O*; Bn = c1ccc(C*)cc1; For = O=C*
Test system: CEM cells HIV-1 protection, formazan growth assay
Test: NCI AIDS Antiviral Assay
Settings: for IC50: measured here: growth of uninfected CEM cells
How it was run: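 Category rules: moderately active means at least 50% protection on retest, and confirmed active means 100% protection reproducibly. The underlying data came from a formazan growth assay in HIV-1-infected CEM cells.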

SMILES | EC50 | IC50 | outcome
CC(=O)N(C)SCC(NC(=O)C(Cc1ccccc1)NC(=O)OCc1ccccc1)C(=O)NC(Cc1ccccc1)C(=O)NC(Cc1cn(C=O)c2ccccc12)C(=O)NC(CCCCNC(=O)OCc1ccccc1)C(=O)NC(C(=O)NC(CSN(C)C(C)=O)C(=O)NC(C(N)=O)C(C)OCc1ccccc1)C(C)OCc1ccccc1 (stereo not given) (Cbz-F[X3]FW(For)K(Cbz)T(Bn)[X3]T(Bn)-NH2; configuration not given here) | > 100 µM | > 100 µM | –
NS(=O)(=O)c1ccc(NC(=O)c2cccc3c(Nc4ccc(S(N)(=O)=O)cc4)c4ccccc4nc23)cc1 | > 34.7 µM | 26.3 µM | –
CC1CCC/C1=C(/I)C(=O)c1ccccc1 (stereo not given) | > 200 µM | 58.9 µM | –
Clc1ccc2noc(-c3ccccc3)c2c1 | > 22.9 µM | > 22.9 µM | –
Cc1ccc(NC(=O)/C(=N\NC(N)=O)c2c(O)c3ccccc3[nH]c2=O)cc1 | > 95.5 µM | > 95.5 µM | –
CCCCN(CCCC)C(=Nc1ccccc1)N(CCCC)CCCC | > 138 µM | 24 µM | –
CC(C)SC1CC2C(CC1(C)O)C2(C)C (stereo not given) | > 200 µM | > 200 µM and 91.2 µM | –
CCOC(=O)c1c(NS(=O)(=O)c2ccc(C)cc2)sc(C)c1C | > 200 µM | 33.9 µM | –
COc1nc2cc3c(cc2n2cccc12)oc1ccccc13 | 155 µM | > 200 µM | –
Cc1ccc(C2NC(=S)N3C(c4ccc(C)cc4)NC(=S)N23)cc1 (stereo not given) | > 200 µM | 3.39 µM | –
CC#CC(O)(C(=O)OC1CCCN(C)C1)C1=CC=CCC1 (stereo not given) | > 200 µM | > 200 µM | –
C=CCNC(=S)N/C=C(/C#N)C(=O)OC | – | – | inactive
CC(C)=CCC[C@@H](C)c1c2[nH]c3ccccc3sc-2c(C)c(=O)c1=O | > 200 µM | 4.27 µM | –
O=C(O)c1ccc(N=Nc2ccc(CCc3ccc(N=Nc4ccc(C(=O)O)cc4O)cc3S(=O)(=O)O)c(S(=O)(=O)O)c2)c(O)c1 | 19.5 µM | 234 µM | –
COc1cc2ccnc3c2c(c1OC)CC1CC(O)C(OC)CC31 (stereo not given) | – | – | inactive
CC(C)[C@@H]1OC(=O)[C@@H](C)NC(=O)[C@@H]2CCCN2C1=O (HELM PEPTIDE1{[CC(C)[C@H](O[*:1])C(=O)[*:2]].P.[dA]}$PEPTIDE1,PEPTIDE1,1:R1-3:R2$$$V2.0) | > 200 µM | > 200 µM | –
Cc1cc(Nc2ccc(S(=O)(=O)O)c3cc(S(=O)(=O)O)cc(S(=O)(=O)O)c23)c2ccccc2n1 | > 200 µM | > 200 µM | –
COC1C(OC(N)=O)C(O)C(Oc2ccc3c(O)c(NC(=O)c4ccc(O)c(CC=C(C)C)c4)c(=O)oc3c2C)OC1(C)C (stereo not given) | > 389 µM | 79.4 µM | –
CCCc1nn2c(-c3ccccc3)nnc2o1 | > 200 µM | 63.1 µM | –
COc1cccc(-n2c3nc(=O)n(C)c(=O)c-3nc3ccccc32)c1 | – | – | inactive
CCOC(=O)C1(c2ccccc2)CCC(=O)CC1 | > 380 µM | > 380 µM | –

SMILES | EC50 | IC50 | outcome
O=C(CSc1nnc(-c2ccc(Cl)cc2)s1)Nc1nccs1 | > 200 µM | > 200 µM | –
CC(C)(C)N=C1C(=O)C2(C)CCC1C2(C)C (stereo not given) | > 20 µM | > 20 µM | –
CCN(CC)/[N+]([O-])=N/OS(=O)(=O)N(C)C | > 200 µM | > 200 µM | –
O=C(O)c1ccccc1/C=N\N(CCO)C1=NCCN1 | > 200 µM | > 200 µM | –
O=c1cc(-c2ccccc2)oc2cc(O)c(O)c(O)c12 | > 200 µM | 22.4 µM | –
O=c1[nH]ncc2c1nnn2C1CCC(CO)O1 (stereo not given) | > 200 µM | > 200 µM | –
CC/C=C/C(=O)CC(O)(C(F)(F)F)C(F)(F)F | > 200 µM | > 200 µM | –
ClC/C=C/C[P+](c1ccccc1)(c1ccccc1)c1ccccc1 | > 200 µM | 3.16 µM | –
S=C1Cc2c(-c3ccccc3)cc(-c3ccc(Cl)cc3)nc2-c2ccccc2N1 | > 200 µM | 3.39 µM | –
COC(=O)C(Cc1cn(C(C)n2cc(CC(NC(C)=O)C(=O)OC)c3ccccc32)c2ccccc12)NC(C)=O (stereo not given) | > 81.3 µM | 74.1 µM | –
C/C(CC(=O)Nc1ccc(C)cc1)=N\NC(N)=S | > 490 µM | 245 µM | –
CC1=C(C(=O)Nc2cc(=O)n(C)c(=O)n2C)C(c2ccco2)C(C(=O)Nc2cc(=O)n(C)c(=O)n2C)=C(C)N1 | > 93.3 µM | > 93.3 µM | –
COc1ccc(C2c3cc4c(cc3OC(N3CCOCC3)C2C)OCO4)c(OC)c1OC (stereo not given) | > 200 µM | 9.55 µM | –
CC1(C)C=[N+]([O-])C(C)(C)N1 | > 200 µM | > 200 µM | –
O=C1C=C(Nc2ccc(Br)cc2)c2ccccc2C1=O | > 4.37 µM | > 4.37 µM | –
COc1cc2cc(C(=O)N3CC(CCl)c4c3cc([N+](C)(C)Cc3ccc([N+](=O)[O-])n3C)c3ccccc43)[nH]c2c(OC)c1OC (stereo not given) | > 2 µM | 1.26 µM | –
CC12CCC3C4CCC(=O)C(CCC(=O)O)=C4CCC3(CO1)C2 (stereo not given) | > 794 µM | > 794 µM | –
O=C1OC(c2ccccc2)c2cccnc21 (stereo not given) | > 1170 µM | > 1170 µM | –
CN=Cc1ccccc1O.CN=Cc1ccccc1O.[Cu+2] | > 200 µM | 11.2 µM | –
O=S(=O)(O)C1=C2Sc3ccccc3N=C2c2ccccc2C1 | > 141 µM | 7.94 µM | –
NC(N)=Nc1ccc(/C=C2\C=Cc3ccccc32)cc1 | > 27.5 µM | 10.5 µM | –

SMILES | EC50 | IC50 | outcome
Oc1ccc(-c2nc(-c3cccnc3)c(-c3ccc(F)cc3)[nH]2)cc1 | > 200 µM | 30.9 µM | –
Cc1cc2c(=O)cc(-c3ccncc3)oc2c(C(=O)O)c1C | > 851 µM | > 851 µM | –
O=C1NS(=O)(=O)C2C(Cl)=C(Cl)C3(Cl)C2C13Cl (stereo not given) | > 776 µM | > 776 µM | –
CC1(C(=O)O)CCCC2(C)C3=CC(=O)CCC3=CCC12 (stereo not given) | > 200 µM | 186 µM | –
CC(C)(C)OC(=O)NC(Cc1ccccc1)OCc1ccccc1 (stereo not given) | > 200 µM | 45.7 µM | –
COc1ccc(C2OC(=O)c3c2ccc2ccccc32)c(C)c1 (stereo not given) | > 44.7 µM | 27.5 µM | –
CCOC(=O)NC1=C(N2CC2)C(=O)C(NC(=O)OCC)=C(N2CC2)C1=O | > 24.5 µM | 6.46 µM | –
CC(C)(C)OC(=O)NC(Cc1ccc(OCc2ccccc2)cc1)C(=O)NC(CCCCNC(=O)OCc1ccccc1)C(=O)ON1C(=O)CCC1=O (stereo not given) (Boc-Tyr(Bn)-Lys(Cbz)-OSu; configuration not given here) | > 200 µM | 36.3 µM | –
Cc1ccc(N2C(=O)C(Cl)=C(Cl)C2=O)cc1 | – | – | inactive
CCOC(=O)C(=Cc1cccc(C#N)c1)C(=O)OCC | > 132 µM | 8.51 µM | –
O=C1NC(=O)C(CC(C(=O)C(=O)Nc2ccccc2Cl)C(=O)c2ccc3ccccc3c2)C(=O)N1 (stereo not given) | > 38 µM | > 38 µM | –
C[N+]1(C)CCCC1C(=O)[O-] (stereo not given) | > 1740 µM | > 1740 µM | –
COC(=O)C1(C(=O)OC)CC2=C(S(=O)(=O)c3ccccc3)C[C@@H](C#N)[C@H]2C1 | > 200 µM | 110 µM | –
O=S1(=O)[C@H](c2ccccc2)c2c(-c3ccccc3)sc(-c3ccccc3)c2[C@@H]1c1ccccc1 | – | – | inactive
CC(=O)OC12/C(=N/O)CCCCCC1c1ccccc12 (stereo not given) | > 200 µM | > 200 µM | –
CCN=C(Nc1cccc(C2=NCCN2)c1)c1ccc(C(=NCC)Nc2cccc(C3=NCCN3)c2)cc1 | 145 µM | > 200 µM | –
CCN(CC)CCO/N=C1\CC[C@H]2[C@@H]3CCc4cc(OC)ccc4[C@H]3CC[C@]12C | > 20 µM | 2.69 µM | –
COc1ccccc1/C=C(\NC(=O)c1ccccc1)C(=O)NC(C)C | > 200 µM | > 200 µM | –
Nc1nc(Nc2ccccc2)sc1O | > 200 µM | 195 µM | –
Cc1cc(=O)c2c(=O)oc3c4ccccc4ccc3c2o1 | > 200 µM | 105 µM | –
NC(N)=NC(N)=Nc1ccc(Sc2ccc(N=C(N)N=C(N)N)cc2)cc1 | > 200 µM | – | –

SMILES | EC50 | IC50 | outcome
CC(C)(O)[C@@H]1CC[C@@]2(C)CCC[C@H](O)[C@H]2C1 | – | – | inactive
CCOC(=O)C#CCC/C=C(\C)COC1CCCCO1 (stereo not given) | – | – | inactive
COc1ccccc1/C=C/C(=O)N1CCC2(CC1)C(=O)N(C)CN2c1ccccc1 | > 200 µM | 51.3 µM | –
COc1ccccc1/C=C1\Sc2scc(-c3ccc(O)c(O)c3)[n+]2C1=O | > 200 µM | 3.89 µM | –
N#CC1(C#N)C(c2ccccc2)NC23CCCCC2C1(C#N)C(=O)N3 (stereo not given) | > 200 µM | 81.3 µM | –
CC1c2c(cc(=O)[nH]c2O)C(=O)N1Cc1ccccc1 (stereo not given) | > 347 µM | 302 µM | –
NC(=O)C(=O)C1C(=O)N(c2ccccc2)N=C1N (stereo not given) | – | – | inactive
CCN1C(=O)CS/C1=N\NC(=O)CSc1nc2ccccc2c(=O)n1CC | > 200 µM | 151 µM | –
CC(=O)OC1C(OCc2cc(=O)oc3c4c(c5c(c23)OC(C)(C)CC5)O[C@@H](C)[C@H](C)[C@@H]4O)OC(CO)C(O)C1O (stereo not given in full) | > 200 µM | 43.7 µM | –
CC1OC(OC23C(=O)C[C@](C)(O)CC2(O)C=CC2C3=c3oc(-c4ccc(O)cc4)c4c3=C(C(=O)C(C3CC(OC5CCC(OC6CC(O)C(O)C(C)O6)C(C)O5)C(O)C(C)O3)=C4)C2O)CCC1O (stereo not given in full) | > 19.1 µM | > 19.1 µM | –
COC(=O)/C=C/C(=O)/C=C/COC(=O)c1ccccc1 | > 95.5 µM | 61.7 µM | –
CCOC(=O)c1sc(C(=O)OCC)c2c1-c1cccc3cccc-2c13 | > 200 µM | > 200 µM | –
NS(=O)(=O)c1ccc(-c2c3nc(c(-c4ccc(S(N)(=O)=O)cc4)c4ccc([nH]4)c(-c4ccc(S(N)(=O)=O)cc4)c4nc(c(-c5ccc(S(N)(=O)=O)cc5)c5ccc2[nH]5)C=C4)C=C3)cc1 | > 97.7 µM | 46.8 µM | –
CC(=O)NC1=CC(=O)C=C(Cl)C1=O | > 200 µM | 32.4 µM | –
CC(=O)Nc1nnc(S(C)(=O)=O)s1 | > 1120 µM | 851 µM | –
O=C(/C=C/c1ccccc1)CCc1c(O)c2ccccc2oc1=O | > 112 µM | 97.7 µM | –
Cc1ccc(C2=CSC3=NCCN23)cc1Cl | > 200 µM | 93.3 µM | –
[Pt].c1ccc([PH+](CC[PH+](CC[PH+](c2ccccc2)c2ccccc2)CC[PH+](c2ccccc2)c2ccccc2)c2ccccc2)cc1 | > 21.9 µM | 0.417 µM | –
Cn1/c(=N\S(=O)(=O)c2ccccc2)n(S(=O)(=O)c2ccccc2)c2ccccc21 | > 200 µM | > 200 µM | –
